Values quoted from earlier work in patent publication US20040037903A1, “Phytonutrient formula for the relief of chronic pain resulting from inflammation” (priority 2003, published 2004).

Key:
IL-1B = settings: human cell lines
5-HETE [1] = settings: in vivo in rats, curcumin added to the diet
IL-8 = settings: human cell lines
PGE2 = settings: in vivo in rats, curcumin added to the diet
TNF-α = settings: human cell lines
[2] = animal study, similar active dose
5-HETE [3] = settings: rat polymorphonuclear leukocytes
IL-6 = settings: incubation of mouse macrophages with resveratrol

In the case of `COc1cc(/C=C/C(=O)CC(=O)/C=C/c2ccc(O)c(OC)c2)ccc1O` [curcumin, diferuloyl methane], the “inhibition of cytokine IL-1B” value (IL-1B) is given as “at least 50%”, the “reduction of 5-HETE” value (5-HETE [1]) is given as 80% and the “inhibition of cytokine IL-8” value (IL-8) is given as “at least 50%”. The “reduction of PGE2” value (PGE2) was 38% and the “inhibition of cytokine TNF-α” value (TNF-α) was “at least 50%”.

For `CCCCC1C(=O)N(c2ccccc2)N(c2ccccc2)C1=O` [phenylbutazone], the ulcerogen index [2] is given as 1.7.

In the case of `Oc1ccc(/C=C/c2cc(O)cc(O)c2)cc1` [resveratrol, 3,5,4′-trihydroxy-trans-stilbene], the “inhibition of 5-HETE” value (5-HETE [3]) is listed as “greater than 70%” and the “inhibition of the production of IL-6” value (IL-6) is listed as 34%.
